Assay results taken from US20260335293A1, “USE OF NOVEL COMPOUND FOR TREATING INTRACTABLE DISEASES” (YJ CERAPEUTICS INC., priority 2023, published 2026).

Experiments:
microglia (OX-42) = assay: Microglial activation in spinal cord of SNI model, OX-42 staining; assay type: in vivo, Sprague-Dawley rats; settings: spinal cord L4-L5, 4 weeks after nerve injury
Description: (§1) To be used as a peripheral nerve injury animal model, a sciatic nerve injury (SNI) model was prepared (FIG. 1C). Specifically, 200 to 220 g of male adult Sprague-Dawley rats were anesthetized by intraperitoneal injection of chloral hydrate (500 mg/kg), and then three terminal branches (tibial, common peroneal, and sural nerves) of the right sciatic nerve were approached, and the tibia nerve and the peroneal nerve were tightly ligated with 4-0 silk, and neurectomy was performed at a distal 3 mm position of the ligation site. At this time, a Sham group was a group that exposed only the sciatic nerve without damage.
(§2) To analyze the activation of microglia in the spinal cord, which were known to play an important role in the induction/persistence of neuropathic pain, 4 weeks after nerve injury in the SNI animal model, the spinal cord of 4 and 5 lumbar vertebrae was stained with OX-42 to confirm changes in cell shape and intensity. […] The supernatant was transferred to a new microcentrifuge, the protein concentration was measured using a BCA kit, and samples for Western blot were prepared by adding a 1× sample buffer and boiling for 5 minutes. […]

p38MAPK = p38MAPK phosphorylation in spinal cord of SNI model, Western blot; assay type: in vivo, Sprague-Dawley rats
Description: as §1, §2

astrocytes (GFAP) = assay: Astrocyte activation in spinal cord of SNI model, GFAP immunohistochemistry and Western blot; assay type: in vivo, Sprague-Dawley rats; settings: L4-5 spinal cord
[1] = system: inflammatory factors (IL-6, iNOS, COX-2, IL-1β, TNF-α, MIP-1α, MIP-1β, MIP-2α, Gro-α, and MCP-1); assay: Inflammatory factor expression in spinal cord of SNI model, RT-PCR and Western blot; assay type: in vivo, Sprague-Dawley rats; settings: ipsilateral L4-5 spinal cord
Description: as §1
It was known that when neuropathic pain occurred, the activation of microglia and astrocytes expressed inflammatory factors including cytokines and chemokines to cause excessive excitation of surrounding neurons. Therefore, in order to confirm changes in inflammatory factor expression by YJ102 administration in the SNI animal model 4 weeks after nerve injury, RNA and protein were extracted from L4-5 spinal cord tissue and RT-PCR and Western blot analysis were performed. Specifically, for RT-PCR analysis, RNA was isolated from spinal cord tissue sections using a TRIZOL Reagent (Invitrogen) according to a manual, and 20 μl of the total mixture was prepared by using 1 μg of total RNA, and cDNA was synthesized using MMLV reverse transcriptase (Invitrogen). […]

bladder wall = assay: Bladder hypertrophy (bladder wall thickness, H&E) in SCI model; assay type: in vivo, Sprague-Dawley rats; settings: 5 mg/kg i.p., day 1 after SCI
[2] = system: collagen in bladder muscle; assay: Collagen content in bladder muscle (Masson's trichrome) in SCI model; assay type: in vivo, Sprague-Dawley rats; settings: 5 mg/kg i.p., day 1 after SCI, vs normal group
[3] = system: skin tissue of psoriasis mouse model; assay: Epidermal layer thickness and dermal cell introduction (H&E) in IMQ psoriasis model; assay type: in vivo, C57BL/6 mouse; settings: 5 mg/kg i.p. Days 2-4, Day 6
Description: (§3) Psoriasis caused by excessive production of skin cells was a chronic skin disease associated with various factors, including autoimmune diseases, and its symptoms included red and thickened skin and abnormally occurring scaling. […] Specifically, the back region of a C57BL/6 mouse (male, 18 to 20 g, 8 weeks) (Daehan Biolink, Eumseong, Korea) was shaved to remove hair, and then applied with IMQ cream (83 mg/day) (5%) for consecutive 5 days from Day 0 to Day 4 to induce psoriasis-like skin inflammation, and a normal control mouse (Sham) was applied with Vaseline cream (FIG. 16A).
(§4) In order to confirm the effect of YJ102 (Chemical Formula 1), a compound of the present disclosure, on psoriasis, YJ102 dissolved in DMSO, methyl pyrrolidinone, and water (1:1.5:1) was administered intraperitoneally (5 mg/kg) for a total of 3 days on Day 2, Day 3, and Day 4, and the Vehicle group was administered in the same amount of a solution of DMSO, methyl pyrrolidinone, and water (1:1.5:1) (FIG. 16A). To assess daily skin changes, PASI scores were used for erythema and scaling. The PASI score was evaluated as a severity scale of 0 to 4, in which 0 meant none, 1 meant mild, 2 meant moderate, 3 meant severe, and 4 meant very severe. […]
On day 6, the skin tissue of the psoriasis mouse model was stained with Hematoxyline & Eosin, and the epidermal layer thickness was measured. […]

[4] = system: spleen of psoriasis mouse model; assay: Spleen hypertrophy in IMQ psoriasis model; assay type: in vivo, C57BL/6 mouse; settings: Day 6, vs Vehicle
Description: as §3
as §4, with “severe. (PASI Reference: Yashpal Manchanda, Abhishek De, Sudip Das, and Disha Chakraborty. Disease Assessment in Psoriasis. Indian J Dermatol. 2023 May-June; 68 (3): 278-281.)” for “severe.”

## CCc1ccc(N(C(=O)COC)c2nc3cc(Cl)ccc3o2)cc1 [YJ102]
Microglia (OX-42)
  microglia activation changes (OX-42 intensity): significantly reduced
p38MAPK
  amount of p-p38MAPK: significantly reduced
Astrocytes (GFAP); Western blot
  GFAP expression: significantly decreased
Astrocytes (GFAP); immunohistochemistry
  GFAP expression intensity: significantly decreased
[1]; RT-PCR
  expression of inflammatory factors: significantly reduced
[1]; Western blot
  expression of inflammatory factors: significantly reduced
Bladder wall
  thickness of lamina propria: significantly reduced
  thickness of muscle layer: significantly reduced
  thickness of urothelium layer: significantly reduced
[2]
  collagen content in the bladder muscle: maintained at a level almost similar to that of the normal group
[3]
  number of cells introduced into the dermal layer: decreased to the Sham level
  reduction of epidermal layer thickness compared to Vehicle group: approximately 35%
[4]
  size of the spleen: significantly reduced
  weight of the spleen: significantly reduced
